Laboratory results taken from patent US20120245137A1 (Zalicus Pharmaceuticals Ltd., priority 2009, published 2012).

molecular target: N-type calcium channel subunits (α1B, α2δ, and β3a) (Homo sapiens, UniProt Q00975); assay: Block of Cav2.2 channel, whole cell voltage clamp, manual and PatchXpress; assay type: cell-based; conditions: Table 5; table follows Assay Example 3 (whole cell voltage clamp / PatchXpress); assay not given
Protocol: Cells are grown either on poly-D-lysine coated coverglass (manual EP) or in TIS culture plates (PatchXpress). For the PatchExpress, cells are released from the flask using trypsin. In both cases, the […] solution is (in mM): 130 […], 10 EGTA, 10 HEPES, 2 MgCl2, 3 MgATP, pH 7.3 with CsOH.
Microelectrodes are fabricated from borosilicate glass and fire-polished. […] The reference electrode is a silver-silver chloride pellet. Voltages are not corrected for the liquid junction potential between the internal and external solutions and leak is subtracted using the P/n procedure. Solutions are applied to cells by bath perfusion via gravity. The experimental chamber volume is—0.2 mL. and the perfusion rate is 0.5-2 mL/min. Flow of suction through the chamber is maintained at all times. Measurement of current amplitudes is performed with […] software (HEKA Elektronik).
PatchXpress (Molecular Devices) is a 16-well whole-cell automated patch clamp device that operates asynchronously with fully integrated fluidics. […] Capacitance and series resistance compensation is automated. No correction for liquid junction potentials is employed. Leak is subtracted using the P/n procedure. Compounds are added to cells with a pipettor from a 96-well compound plate. Voltage protocols and the recording of membrane currents are performed using the PatchXpress software/hardware system. Current amplitudes are calculated with DataXpress software.
In both manual and automated patch clamp, cells are voltage clamped at […] or −90 m V and 50 ms pulses to +20 mV are applied every 15 sec (0.067 Hz). Compounds are added in escalating doses to measure % inhibition. Percent inhibition is calculated from the ratio of the curerent amplitude in the presence and absence of compound. When multiple doses are achieved per cell, IC50 values are calculated.

Sequence of N-type calcium channel subunits (α1B, α2δ, and β3a) (Q00975 whole entry): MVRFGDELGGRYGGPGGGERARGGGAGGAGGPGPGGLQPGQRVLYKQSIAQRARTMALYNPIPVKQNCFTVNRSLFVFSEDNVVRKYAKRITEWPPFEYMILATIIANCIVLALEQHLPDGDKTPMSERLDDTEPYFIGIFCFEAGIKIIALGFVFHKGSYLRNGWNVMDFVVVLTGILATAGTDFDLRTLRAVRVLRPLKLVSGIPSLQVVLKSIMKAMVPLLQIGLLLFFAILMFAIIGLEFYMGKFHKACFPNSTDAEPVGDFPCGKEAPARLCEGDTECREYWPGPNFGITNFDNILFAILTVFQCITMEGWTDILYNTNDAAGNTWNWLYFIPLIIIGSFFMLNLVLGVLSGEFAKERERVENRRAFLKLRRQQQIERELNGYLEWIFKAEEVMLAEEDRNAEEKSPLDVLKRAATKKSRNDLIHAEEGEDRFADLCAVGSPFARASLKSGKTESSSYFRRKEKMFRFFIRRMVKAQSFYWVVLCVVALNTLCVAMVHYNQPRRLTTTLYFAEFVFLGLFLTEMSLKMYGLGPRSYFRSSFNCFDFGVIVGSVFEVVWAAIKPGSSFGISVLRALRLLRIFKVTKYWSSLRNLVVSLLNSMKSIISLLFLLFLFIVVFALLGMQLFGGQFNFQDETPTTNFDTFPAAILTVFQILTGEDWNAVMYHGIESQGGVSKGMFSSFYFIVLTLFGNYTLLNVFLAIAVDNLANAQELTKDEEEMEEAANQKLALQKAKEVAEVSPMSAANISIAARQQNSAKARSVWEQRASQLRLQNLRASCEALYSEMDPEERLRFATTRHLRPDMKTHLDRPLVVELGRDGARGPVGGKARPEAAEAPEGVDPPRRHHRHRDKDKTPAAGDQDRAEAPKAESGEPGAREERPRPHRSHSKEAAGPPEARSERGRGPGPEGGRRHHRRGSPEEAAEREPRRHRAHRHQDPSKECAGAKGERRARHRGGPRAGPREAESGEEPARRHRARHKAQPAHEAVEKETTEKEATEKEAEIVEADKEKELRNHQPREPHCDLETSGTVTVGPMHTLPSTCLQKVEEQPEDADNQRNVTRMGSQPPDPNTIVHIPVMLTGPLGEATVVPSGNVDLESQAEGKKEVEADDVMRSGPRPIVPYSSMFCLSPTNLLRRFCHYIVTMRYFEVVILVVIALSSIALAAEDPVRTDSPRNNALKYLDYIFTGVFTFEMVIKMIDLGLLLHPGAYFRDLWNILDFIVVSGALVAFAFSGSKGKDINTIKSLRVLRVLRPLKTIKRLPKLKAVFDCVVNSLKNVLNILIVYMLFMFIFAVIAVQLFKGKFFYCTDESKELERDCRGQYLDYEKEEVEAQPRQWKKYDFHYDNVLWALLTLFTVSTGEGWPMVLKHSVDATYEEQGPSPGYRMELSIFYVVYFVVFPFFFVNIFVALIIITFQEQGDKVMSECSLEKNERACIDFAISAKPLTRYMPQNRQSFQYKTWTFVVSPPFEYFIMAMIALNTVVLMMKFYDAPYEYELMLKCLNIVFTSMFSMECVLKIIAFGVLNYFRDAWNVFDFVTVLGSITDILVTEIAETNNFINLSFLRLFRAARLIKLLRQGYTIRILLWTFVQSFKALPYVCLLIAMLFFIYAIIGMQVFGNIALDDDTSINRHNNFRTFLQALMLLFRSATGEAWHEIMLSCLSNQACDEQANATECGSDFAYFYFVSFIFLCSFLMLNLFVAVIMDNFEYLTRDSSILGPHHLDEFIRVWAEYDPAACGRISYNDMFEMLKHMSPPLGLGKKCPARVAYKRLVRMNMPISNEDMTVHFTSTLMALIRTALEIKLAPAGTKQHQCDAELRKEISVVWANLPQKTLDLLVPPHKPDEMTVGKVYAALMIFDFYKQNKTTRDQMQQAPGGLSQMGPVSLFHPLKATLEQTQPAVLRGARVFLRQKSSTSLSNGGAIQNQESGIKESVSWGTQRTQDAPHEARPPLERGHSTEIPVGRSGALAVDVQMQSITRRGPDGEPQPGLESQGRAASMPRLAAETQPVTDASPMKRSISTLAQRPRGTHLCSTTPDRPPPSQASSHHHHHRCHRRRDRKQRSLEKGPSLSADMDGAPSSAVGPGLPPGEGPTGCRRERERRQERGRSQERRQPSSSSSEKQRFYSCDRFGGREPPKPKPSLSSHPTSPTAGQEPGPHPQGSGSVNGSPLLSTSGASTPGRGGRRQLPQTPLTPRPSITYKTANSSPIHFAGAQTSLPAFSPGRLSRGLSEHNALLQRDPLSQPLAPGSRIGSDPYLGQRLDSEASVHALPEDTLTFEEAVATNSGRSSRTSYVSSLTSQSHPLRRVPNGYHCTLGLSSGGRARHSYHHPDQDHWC
Sequence of N-type calcium channel subunits (α1B, α2δ, and β3a) (P54289 25-1103 partner): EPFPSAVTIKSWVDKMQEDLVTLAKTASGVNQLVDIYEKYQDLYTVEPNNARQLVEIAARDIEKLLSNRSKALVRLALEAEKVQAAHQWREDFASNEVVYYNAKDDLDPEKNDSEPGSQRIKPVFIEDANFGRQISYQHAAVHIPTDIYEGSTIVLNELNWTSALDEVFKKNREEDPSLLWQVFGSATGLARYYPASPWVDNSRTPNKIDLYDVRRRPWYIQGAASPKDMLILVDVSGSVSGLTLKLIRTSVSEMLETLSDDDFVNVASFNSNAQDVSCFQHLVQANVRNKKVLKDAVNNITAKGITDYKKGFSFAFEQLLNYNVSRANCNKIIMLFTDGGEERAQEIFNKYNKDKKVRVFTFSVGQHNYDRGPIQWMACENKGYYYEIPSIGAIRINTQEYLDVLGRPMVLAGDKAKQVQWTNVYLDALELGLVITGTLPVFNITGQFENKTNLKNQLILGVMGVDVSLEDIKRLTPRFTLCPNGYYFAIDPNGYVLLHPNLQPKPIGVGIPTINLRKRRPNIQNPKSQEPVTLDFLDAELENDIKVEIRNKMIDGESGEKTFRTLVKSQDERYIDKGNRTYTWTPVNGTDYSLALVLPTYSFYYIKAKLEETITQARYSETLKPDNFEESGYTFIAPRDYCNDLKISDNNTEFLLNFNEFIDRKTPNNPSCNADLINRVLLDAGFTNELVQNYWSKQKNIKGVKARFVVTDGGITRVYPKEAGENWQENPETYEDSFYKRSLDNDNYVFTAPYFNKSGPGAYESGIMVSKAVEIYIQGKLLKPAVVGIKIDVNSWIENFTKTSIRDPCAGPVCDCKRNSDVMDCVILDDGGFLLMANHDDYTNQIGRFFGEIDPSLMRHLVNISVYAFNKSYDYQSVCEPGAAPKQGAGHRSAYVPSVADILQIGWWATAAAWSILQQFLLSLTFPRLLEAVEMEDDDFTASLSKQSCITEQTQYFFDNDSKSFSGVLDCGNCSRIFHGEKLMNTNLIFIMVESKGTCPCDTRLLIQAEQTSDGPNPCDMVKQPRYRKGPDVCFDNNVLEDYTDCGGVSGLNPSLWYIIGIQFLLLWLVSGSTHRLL
Sequence of N-type calcium channel subunits (α1B, α2δ, and β3a) (P54284 whole entry partner): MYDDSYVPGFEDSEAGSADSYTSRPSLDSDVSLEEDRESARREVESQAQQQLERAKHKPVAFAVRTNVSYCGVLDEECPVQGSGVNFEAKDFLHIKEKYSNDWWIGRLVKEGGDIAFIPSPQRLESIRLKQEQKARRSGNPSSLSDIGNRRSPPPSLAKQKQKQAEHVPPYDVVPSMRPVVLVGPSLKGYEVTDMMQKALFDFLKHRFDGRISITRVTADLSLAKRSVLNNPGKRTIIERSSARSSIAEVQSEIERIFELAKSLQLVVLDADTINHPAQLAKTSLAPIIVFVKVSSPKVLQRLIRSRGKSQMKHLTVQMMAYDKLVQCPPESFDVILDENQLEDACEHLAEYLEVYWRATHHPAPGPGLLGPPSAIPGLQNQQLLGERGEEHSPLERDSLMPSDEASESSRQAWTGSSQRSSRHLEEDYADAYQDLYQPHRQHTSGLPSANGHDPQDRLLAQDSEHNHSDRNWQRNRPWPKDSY

Compound | IC50 [nM]
O=C(CCC(F)(F)F)NC1CCC(S(=O)(=O)c2cccc(C(F)(F)F)c2)CC1 (stereo not shown) [Compound 12, 4,4,4-trifluoro-N-(4-(3-(trifluoromethyl)phenylsulfonyl)cyclohexyl)butanamide] | 1940
O=C(N[C@H]1CC[C@@H](S(=O)(=O)c2cccc(C(F)(F)F)c2)CC1)C1CCOCC1 [Compound 44, N-((1S,4S)-4-(3-(trifluoromethyl)phenylsulfonyl)cyclohexyl)tetrahydro-2H-pyran-4-carboxamide] | 5930
O=C(CN[C@H]1CC[C@@H](S(=O)(=O)c2cccc(C(F)(F)F)c2)CC1)N1CCOCC1 [Compound 53, 1-morpholino-2-((1S,4S)-4-(3-(trifluoromethyl)phenylsulfonyl)cyclohexylamino)ethanone] | 4720
O=C(N[C@H]1CC[C@H](S(=O)(=O)c2cccc(C(F)(F)F)c2)CC1)C1CCOCC1 [Compound 63, N-((1R,4R)-4-(3-(trifluoromethyl)phenylsulfonyl)cyclohexyl)tetrahydro-2H-pyran-4-carboxamide] | 9980
CCN(CC)C(=O)CN[C@H]1CC[C@H](S(=O)(=O)c2cccc(C(F)(F)F)c2)CC1 [Compound 71, N,N-diethyl-2-((1R,4R)-4-(3-(trifluoromethyl)phenylsulfonyl)cyclohexylamino)acetamide] | 5870
CC(C)NC(=O)CN[C@H]1CC[C@H](S(=O)(=O)c2cccc(C(F)(F)F)c2)CC1 [Compound 72, N-isopropyl-2-((1R,4R)-4-(3-(trifluoromethyl)phenylsulfonyl)cyclohexylamino)acetamide] | 8580
CC(C)(C)NCC(=O)N[C@H]1CC[C@H](CS(=O)(=O)c2cccc(C(F)(F)F)c2)CC1 [Compound 160, 2-(tert-butylamino)-N-((1R,4R)-4-((3-(trifluoromethyl)phenylsulfonyl)methyl)cyclohexyl)acetamide] | 1990
CN(CC(=O)N[C@H]1CC[C@H](CS(=O)(=O)c2cccc(C(F)(F)F)c2)CC1)C(C)(C)C [Compound 161, 2-(tert-butyl(methyl)amino)-N-((1R,4R)-4-((3-(trifluoromethyl)phenylsulfonyl)methyl)cyclohexyl)acetamide] | 2450
O=C(N[C@H]1CC[C@H](CS(=O)(=O)c2cccc(C(F)(F)F)c2)CC1)c1cnccc1C(F)(F)F [Compound 169, 4-(trifluoromethyl)-N-((1R,4R)-4-((3-(trifluoromethyl)phenylsulfonyl)methyl)cyclohexyl)nicotinamide] | 7110
O=C(N[C@H]1CC[C@H](CS(=O)(=O)c2cccc(C(F)(F)F)c2)CC1)c1nsc(Cl)c1Cl [Compound 170, 4,5-dichloro-N-((1R,4R)-4-((3-(trifluoromethyl)phenylsulfonyl)methyl)cyclohexyl)isothiazole-3-carboxamide] | 4920
O=C(N[C@H]1CC[C@H](CS(=O)(=O)c2cccc(C(F)(F)F)c2)CC1)c1ccnc(C(F)(F)F)c1 [Compound 176, 2-(trifluoromethyl)-N-((1R,4R)-4-((3-(trifluoromethyl)phenylsulfonyl)methyl)cyclohexyl)isonicotinamide] | 9440
O=C(N[C@H]1CC[C@H](CS(=O)(=O)c2cccc(C(F)(F)F)c2)CC1)c1cncc(C(F)(F)F)c1 [Compound 177, 5-(trifluoromethyl)-N-((1R,4R)-4-((3-(trifluoromethyl)phenylsulfonyl)tmehyl)cyclohexyl)nicotinamide] | 2060
O=C(N[C@H]1CC[C@H](S(=O)(=O)c2cccc(C(F)(F)F)c2)CC1)c1ccnn1CC(F)(F)F [Compound 180, 1-(2,2,2-trifluoroethyl)-N-((1R,4R)-4-(3-(trifluoromethyl)phenylsulfonyl)cyclohexyl)-1H-pyrazole-5-carboxamide] | 3350
O=C(N[C@H]1CC[C@H](S(=O)(=O)c2cccc(C(F)(F)F)c2)CC1)c1ccc(OCC(F)(F)F)nc1 [Compound 184] | 3110
O=C(N[C@H]1CC[C@H](S(=O)(=O)c2cccc(C(F)(F)F)c2)CC1)c1ccc(C(F)(F)F)nc1 [Compound 186, 6-(trifluoromethyl)-N-((1R,4R)-4-(3-(trifluoromethyl)phenylsulfonyl)cyclohexyl)nicotinamide] | 5840
O=C(N[C@H]1CC[C@@H](S(=O)(=O)c2cccc(C(F)(F)F)c2)CC1)c1cnccc1C(F)(F)F [Compound 195, 4-(trifluoromethyl)-N-((1S,4S)-4-(3-(trifluoromethyl)phenylsulfonyl)cyclohexyl)nicotinamide] | 3150
O=C(N[C@H]1CC[C@@H](S(=O)(=O)c2cccc(C(F)(F)F)c2)CC1)c1ccnc(F)c1 [Compound 201, 2-fluoro-N-((1S,4S)-4-(3-(trifluoromethyl)phenylsulfonyl)cyclohexyl)isonicotinamide] | 1860

Continued, values first:

IC50 [nM] | Compound
1250 | 6-(trifluoromethyl)-N-((1S,4S)-4- (3-(trifluoromethyl)phenylsulfonyl) cyclohexyl)nicotinamide [Compound 199]
640 | O=C(NC[C@H]1CC[C@@H](S(=O)(=O)c2cccc(C(F)(F)F)c2)CC1)c1cc(C(F)(F)F)n[nH]1 [Compound 34, 3-(trifluoromethyl)-N-(((1S,4S)-4-(3-(trifluoromethyl)phenylsulfonyl)cyclohexyl)methyl)-1H-pyrazole-5-carboxamide]
170 | O=C(N[C@H]1CC[C@@H](S(=O)(=O)c2cccc(C(F)(F)F)c2)CC1)c1cc(F)cc(Cl)c1 [Compound 40, 3-chloro-5-fluoro-N-((1S,4S)-4-(3-(trifluoromethyl)phenylsulfonyl)cyclohexyl)benzamide]
740 | O=C(CN[C@H]1CC[C@H](S(=O)(=O)c2cccc(C(F)(F)F)c2)CC1)Nc1ccccn1 [Compound 77, N-(pyridin-2-yl)-2-((1R,4R)-4-(3-(trifluoromethyl)phenylsulfonyl)cyclohexylamino)acetamide]
1230 | CC1(CNC(=O)c2nc3ccc(C(F)(F)F)cc3[nH]2)CCC(F)(S(=O)(=O)c2cccc(C(F)(F)F)c2)CC1 (stereo not shown) [Compound 156, N-((4-fluoro-1-methyl-4-(3-(trifluoromethyl)phenylsulfonyl)cyclohexyl)methyl)-6-(trifluoromethyl)-1H-benzo[d]imidazole-2-carboxamide]
1030 | COc1cc(C(=O)NCC2(C)CCC(F)(S(=O)(=O)c3cccc(C(F)(F)F)c3)CC2)ccn1 (stereo not shown) [Compound 157, N-((4-fluoro-1-methyl-4-(3-(trifluoromethyl)phenylsulfonyl)cyclohexyl)methyl)-2-methoxyisonicotinamide]
1810 | O=C(CN1CCCCC1)N[C@H]1CC[C@H](CS(=O)(=O)c2cccc(C(F)(F)F)c2)CC1 [Compound 164, 2-(piperidin-1-yl)-N-((1R,4R)-4-((3-(trifluoromethyl)phenylsulfonyl)methyl)cyclohexyl)acetamide]
480 | O=C(N[C@H]1CC[C@H](CS(=O)(=O)c2cccc(C(F)(F)F)c2)CC1)c1ccc(OCC(F)(F)F)nc1 [Compound 171, 6-(2,2,2-trifluoroethoxy)-N-((1R,4R)-4-((3-(trifluoromethyl)phenylsulfonyl)methyl)cyclohexyl)nicotinamide]
1830 | O=C(N[C@H]1CC[C@H](S(=O)(=O)c2cccc(C(F)(F)F)c2)CC1)c1ccnc(Cl)c1 [Compound 181, 2-chloro-N-((1R,4R)-4-(3-(trifluoromethyl)phenylsulfonyl)cyclohexyl)isonicotinamide]
1630 | Cc1cc(C(=O)N[C@H]2CC[C@H](S(=O)(=O)c3cccc(C(F)(F)F)c3)CC2)c(C(F)(F)F)o1 [Compound 185, 5-methyl-2-(trifluoromethyl)-N-((1R,4R)-4-(3-(trifluoromethyl)phenylsulfonyl)cyclohexyl)furan-3-carboxamide]
1540 | O=C(N[C@H]1CC[C@H](S(=O)(=O)c2cccc(C(F)(F)F)c2)CC1)c1ccnc(C(F)(F)F)c1 [Compound 189, 2-(trifluoromethyl)-N-((1R,4R)-4-(3-(trifluoromethyl)phenylsulfonyl)cyclohexyl)isonicotinamide]
1220 | CC(C)(C)S(=O)(=O)c1ccsc1C(=O)N[C@H]1CC[C@H](S(=O)(=O)c2cccc(C(F)(F)F)c2)CC1 [Compound 191, 3-(tert-butylsulfonyl)-N-((1R,4R)-4-(3-(trifluoromethyl)phenylsulfonyl)cyclohexyl)thiophene-2-carboxamide]
1330 | O=C(N[C@H]1CC[C@@H](S(=O)(=O)c2cccc(C(F)(F)F)c2)CC1)c1ccnc(Cl)c1 [Compound 194, 2-chloro-N-((1S,4S)-4-(3-(trifluoromethyl)phenylsulfonyl)cyclohexyl)isonicotinamide]
1700 | O=C(N[C@H]1CC[C@@H](S(=O)(=O)c2cccc(C(F)(F)F)c2)CC1)c1cnc(C(F)(F)F)nc1 [Compound 205, 2-(trifluoromethyl)-N-((1S,4S)-4-(3-(trifluoromethyl)phenylsulfonyl)cyclohexyl)pyrimidine-5-carboxamide]
